Key:
Hordeum vulgare = experiment: Phytotoxicity against Hordeum vulgare (barley) plants assessed as crop damage at 125 g ai/ha measured after 3 weeks post compound treatment; format: organism-based; settings: in vivo, 504 h
Avena fatua = experiment: Post-emergence herbicidal activity against Avena fatua at 125 g ai/ha measured after 3 weeks post compound treatment; format: functional
Sorghum halepense = experiment: Post-emergence herbicidal activity against Sorghum halepense (Johnson grass) at 125 g ai/ha measured after 3 weeks post compound treatment; format: functional
Echinochloa crus-galli = experiment: Post-emergence herbicidal activity against Echinochloa crus-galli (barnyard grass) at 125 g ai/ha measured after 3 weeks post compound treatment; format: functional
Triticum aestivum = experiment: Phytotoxicity against Triticum aestivum (wheat) plants assessed as crop damage at 125 g ai/ha measured after 3 weeks post compound treatment; format: organism-based; settings: in vivo, 504 h

| SMILES | Activity (Hordeum vulgare) | Activity (Avena fatua) | Activity (Sorghum halepense) | Activity (Echinochloa crus-galli) | Activity (Triticum aestivum) |
| --- | --- | --- | --- | --- | --- |
| CCCCCSc1nnc([C@@H](C)Oc2ccc(Oc3ncc(Cl)cc3F)cc2)o1 | 5% | 55% | 50% | 70% | 0% |
| CCOC(=O)Sc1nnc([C@@H](C)Oc2ccc(Oc3ncc(Cl)cc3F)cc2)o1 | 0% | 45% | 40% | 60% | 0% |
| C[C@@H](Oc1ccc(Oc2ncc(Cl)cc2F)cc1)c1nnc(SCC(=O)O)o1 | 15% | 50% | 45% | 60% | 0% |
| CC(Sc1nnc([C@@H](C)Oc2ccc(Oc3ncc(Cl)cc3F)cc2)o1)C(=O)O (stereo not given in full) | 15% | 70% | 60% | 70% | 0% |
| C[C@@H](Oc1ccc(Oc2ncc(Cl)cc2F)cc1)c1nnc(SCc2ccc(Cl)nc2)o1 | 0% | 30% | 30% | 40% | 0% |
| CCSc1nnc([C@@H](C)Oc2ccc(Oc3ncc(Cl)cc3F)cc2)o1 | 15% | 75% | 60% | 85% | 5% |
| C#CCSc1nnc([C@@H](C)Oc2ccc(Oc3ncc(Cl)cc3F)cc2)o1 | 0% | 95% | 80% | 100% | 0% |
| CC(O)CSc1nnc([C@@H](C)Oc2ccc(Oc3ncc(Cl)cc3F)cc2)o1 (stereo not given in full) | 0% | 35% | 30% | 40% | 0% |
| C[C@@H](Oc1ccc(Oc2ncc(Cl)cc2F)cc1)c1nnc(SCC(N)=O)o1 | 0% | 40% | 40% | 45% | 0% |
| CCCCSc1nnc([C@@H](C)Oc2ccc(Oc3ncc(Cl)cc3F)cc2)o1 | 10% | 65% | 55% | 80% | 5% |
| C#CCOC(=O)[C@@H](C)Oc1ccc(Oc2ncc(Cl)cc2F)cc1 [CLODINAFOP PROPARGYL] | 35% | 85% | 80% | 100% | 0% |
| CSc1nnc([C@@H](C)Oc2ccc(Oc3ncc(Cl)cc3F)cc2)o1 | 15% | 70% | 60% | 80% | 5% |
| C[C@@H](Oc1ccc(Oc2ncc(Cl)cc2F)cc1)c1nnc(SC(=O)c2ccccc2)o1 | 0% | 35% | 40% | 55% | 0% |
| C[C@@H](Oc1ccc(Oc2ncc(Cl)cc2F)cc1)c1nnc(SCc2ccccc2)o1 | 0% | 25% | 20% | 35% | 0% |

From ChEMBL document CHEMBL3046927, “Synthesis and herbicidal activity of novel 5-chloro-3-fluoro-2-phenoxypyridines with a 1,3,4-oxadiazole ring” (J Pestic Sci, 2011)
